Laboratory results from patent US9403758B2, “Antibacterial agents” (Achaogen, Inc., priority 2012, dated 2016).
Values after ≈ are worked out from the molar mass of the structure shown.

Experiments:
Assay type in all cases: cell-based
[1] = system: Escherichia coli ATCC25922; assay: MIC broth microdilution, Escherichia coli ATCC25922 (AECO); settings: 35° C., 18-24 hr, read-out: Minimum Inhibitory Concentrations (MICs) AECO
Method: (§1) Bacterial isolates were cultivated from −70° C. frozen stocks by overnight passages at 35° C. in ambient air on Mueller-Hinton agar (Beckton Dickinson, Franklin Lakes, N.J.). Clinical isolates tested were obtained from various geographically diverse hospitals in the US and abroad (Focus Diagnostics, Herndon, Va. and JMI, North Liberty, Iowa). Quality control strains were from the American Type Culture Collection (ATCC; Rockville, Md.).
(§2) Minimum Inhibitory Concentrations (MICs) were determined by the broth microdilution method in accordance with the Clinical and Laboratory Standards Institute (CLSI) guidelines. In brief, organism suspensions were adjusted to a 0.5 McFarland standard to yield a final inoculum between 3×10^5 and 7×10^5 colony-forming units (CFU)/mL. Drug dilutions and inocula were made in sterile, cation adjusted Mueller-Hinton Broth (Beckton Dickinson). An inoculum volume of 100 μL was added to wells containing 100 μL of broth with 2-fold serial dilutions of drug. All inoculated microdilution trays were incubated in ambient air at 35° C. for 18-24 hr. Following incubation, the lowest concentration of the drug that prevented visible growth (OD600 nm<0.05) was recorded as the MIC. Performance of the assay was monitored by the use of laboratory quality-control strains and levofloxacin, a compound with a defined MIC spectrum, in accordance with CLSI guidelines. Typically, compounds of the present invention have MIC values of 0.03-32 μg/mL.

[2] = system: Klebsiella pneumonia ATCC43816; assay: MIC broth microdilution, Klebsiella pneumonia ATCC43816 (AKPN); settings: Klebsiella pneumoniae, 35° C., 18-24 hr, read-out: Minimum Inhibitory Concentrations (MICs) AKPN
Method: as §1, §2

[3] = system: Pseudomonas aeruginosa ATCC27853; assay: MIC broth microdilution, Pseudomonas aeruginosa ATCC27853 (APAE); settings: 35° C., 18-24 hr, read-out: Minimum Inhibitory Concentrations (MICs) APAE
Method: as §1, §2

| SMILES | MIC [1] | MIC [2] | MIC [3] |
| --- | --- | --- | --- |
| O=C(NO)c1cc(-c2ccc(C#CC#C[C@@H]3C[C@H]3CO)cc2)nc2ccncc12 (relative stereo) [Compound 1, N-hydroxy-2-(4-(((trans)-2-(hydroxymethyl)cyclopropyl)buta-1,3-diynyl)phenyl)-1,6-naphthyridine-4-carboxamide] | ≤ 1 µg/mL | ≤ 1 µg/mL | 8 to 16 µg/mL (≈ 20.9 to 41.7 µM) |
| O=C(NO)c1cc(-c2ccc(C#CC#C[C@@H]3C[C@H]3CO)cc2)ccn1 (relative stereo) [Compound 2, N-hydroxy-4-(4-(((trans)-2-(hydroxymethyl)cyclopropyl)buta-1,3-diynyl)phenyl)picolinamide] | ≤ 1 µg/mL | 8 to 16 µg/mL (≈ 24.1 to 48.1 µM) | 8 to 16 µg/mL (≈ 24.1 to 48.1 µM) |
| CC(CCc1ccc(C#CC#C[C@H]2C[C@@H]2CO)cc1)(C(=O)NO)S(C)(=O)=O (relative stereo) [Compound 9, N-hydroxy-4-(4-(((trans)-2-(hydroxymethyl)cyclopropyl)buta-1,3-diynyl)phenyl)-2-methyl-2-(methylsulfonyl)butanamide] | ≤ 1 µg/mL | 1 to 8 µg/mL (≈ 2.57 to 20.5 µM) | ≤ 1 µg/mL |
| CSC(C)(C)[C@H](NC(=O)c1ccc(C#CC#C[C@H]2C[C@@H]2CO)cc1)C(=O)NO (stereo in doubt) [Compound 3, N—((R)-1-(hydroxyamino)-3-methyl-3-(methylthio)-1-oxobutan-2-yl)-4-(((trans)-2-(hydroxymethyl)cyclopropyl)buta-1,3-diynyl)benzamide] | ≤ 1 µg/mL | ≤ 1 µg/mL | ≤ 1 µg/mL |
| C[S+]([O-])C(C)(C)[C@H](NC(=O)c1ccc(C#CC#C[C@H]2C[C@@H]2CO)cc1)C(=O)NO (stereo in doubt) [Compound 4, N-((2R)-1-(hydroxyamino)-3-methyl-3-(methylsulfinyl)-1-oxobutan-2-yl)-4-(((trans)-2-(hydroxymethyl)cyclopropyl)buta-1,3-diynyl)benzamide] | ≤ 1 µg/mL | 8 to 16 µg/mL (≈ 19.2 to 38.4 µM) | ≤ 1 µg/mL |
| CC(C)([C@H](NC(=O)c1ccc(C#CC#C[C@H]2C[C@@H]2CO)cc1)C(=O)NO)S(C)(=O)=O (stereo in doubt) [Compound 5, N—((R)-1-(hydroxyamino)-3-methyl-3-(methylsulfonyl)-1-oxobutan-2-yl)-4-(((trans)-2-(hydroxymethyl)cyclopropyl)buta-1,3-diynyl)benzamide] | ≤ 1 µg/mL | ≤ 1 µg/mL | ≤ 1 µg/mL |
| CC(C)(N)[C@H](NC(=O)c1ccc2cc(C#CC3C[C@@H]3CO)ccc2c1)C(=O)NO (stereo partly drawn) [Compound 6, N—((S)-3-amino-1-(hydroxyamino)-3-methyl-1-oxobutan-2-yl)-6-(((trans)-2-(hydroxymethyl)cyclopropyl)ethynyl)-2-naphthamide] | 1 to 8 µg/mL (≈ 2.53 to 20.2 µM) | 8 to 16 µg/mL (≈ 20.2 to 40.5 µM) | ≤ 1 µg/mL |
| CC(C)(N)[C@H](NC(=O)c1cc2ccc(C#CC3C[C@H]3CO)cc2s1)C(=O)NO (stereo partly drawn) [Compound 7, N—((S)-3-amino-1-(hydroxyamino)-3-methyl-1-oxobutan-2-yl)-6-(((trans)-2-(hydroxymethyl)cyclopropyl)ethynyl)benzo[b]thiophene-2-carboxamide] | 1 to 8 µg/mL (≈ 2.49 to 19.9 µM) | 8 to 16 µg/mL (≈ 19.9 to 39.9 µM) | 1 to 8 µg/mL (≈ 2.49 to 19.9 µM) |
| CNC(=O)C(NC(=O)c1ccc(C#CC#C[C@@H]2C[C@H]2CO)cc1)C(=O)NO (stereo partly drawn) [Compound 8] | ≤ 1 µg/mL | ≤ 1 µg/mL | ≤ 1 µg/mL |
